What was measured:
[1] = test system: H157 (non-small cell lung carcinoma) cells; assay: 96 hr MTS dose response experiment in H157 cells; type: cell-based, human; details: a range means IC50 lies between the two tested concentrations
Experimental: (§1) MTS dose response experiments in H157, H82, and A549 cells following a 96 hr exposure with select compounds were performed. MTS is a standard colorimetric assay used for measuring metabolic activity in cells. MTS experiments were performed by CellTiter 96® AQueuos One Solution Cell Proliferation Assay from Promega Corporation. Briefly, the cells were seeded at 3000 cells/well on a 96 well tissue culture plate containing 100 ul of medium/well and allowed to attach overnight. The medium was then aspirated and replaced with 100 ul of fresh medium containing the appropriate concentration of the compound being tested and incubated for 96 hrs at 37° C. and 5% CO2. Compounds are routinely tested at concentrations ranging from 0.1 micromolar to 50 micromolar. Wells not containing the test compound were present and used as a control. Following treatment, 20 ul of MTS reagent was added to each well and incubated at 37° C. for 1.5 hrs. The absorbance of each well was then measured at 490 nm and used to determine the metabolic activity of the cells in the presence of the test compound, relative to the control. IC50 values for the test compounds were extracted based on the results.
(§2) Note that the results for a 72 hr exposure in addition to the 96 hr exposure are shown for compound 49-TDW-29C in the H157 cells. […] FIG. 1 depicts the results of a 96 hr MTS dose response experiments for compound 46-TDW-23c in H157, A549, H82 and Beas2B cells. FIG. 2 depicts the results of a 96 hr MTS dose response experiments for compound 49-TDW-9 in H157, A549, H82 and Beas2B cells. FIG. 3 depicts the results of a 96 hr MTS dose response experiments for compound 42-TDW-21c in H157, A549, H82 and Beas2B cells. FIG. 4 depicts the results of a 96 hr MTS dose response experiments for compound 46-TDW-19c in H157, A549, H82 and Beas2B cells. FIG. 5 depicts the results of a 96 hr MTS dose response experiments for compound 49-TDW-17c in H157, A549, H82 and Beas2B cells. FIG. 6 depicts the results of a 96 hr MTS dose response experiments for compound 40-TDW-37 in H157, A549, H82 and Beas2B cells. FIG. 7 depicts the results of a 96 hr MTS dose response experiments for compound 42-TDW-4 in H157, A549, H82 and Beas2B cells. FIG. 8 depicts the results of a 96 hr MTS dose response experiments for compound 49-TDW-29c in H157, A549, H82 and Beas2B cells. FIG. 9 depicts the results of a 96 hr MTS dose response experiments for compound 49-TDW-32c in H157, A549, H82 and Beas2B cells. FIG. 10 depicts the results of a 96 hr MTS dose response experiments for compound 46-TDW-35c in H157, A549, H82 and Beas2B cells. FIG. 11 depicts the results of a 96 hr MTS dose response experiments for compound 39-TDW-3 in H157, A549, and H82 cells. FIG. 12 depicts the results of a 96 hr MTS dose response experiments for compound 39-TDW-12c in […], and A549 cells. FIG. 13 depicts the results of a 96 hr MTS dose response experiments for compound 39-TDW-20c in H157, and H82 cells. FIG. 14 depicts the results of a 96 hr MTS dose response experiments for compounds 39-TDw-47c and 39-TDW-43 in H157 cells. FIG. 15 depicts the results of a 96 hr MTS dose response experiments for compounds 42-TDW-9, 42-TDW-4c/6, 40-TDW-35, 42-TDW-38 and BENSpm in H157 cells. FIG. 16 depicts the results of a 96 hr MTS dose response experiments for compounds 46-TDW-34c, 42-TDW-12, 40-TDW-48, 46-TDW-44c and BENSpm in H157 cells. FIG. 17 depicts the results of a 96 hr MTS dose response experiments for compounds 42-TDW-20c, 46-TDW-22, 46-TDW-39, 49-TDW-29c and BENSpm in H157 cells. FIG. 18 depicts the results of a 96 hr MTS dose response experiments for compounds 39-TDW-43, 42-TDW-48c, 46-TDW-9, 46-TDW-23c and BENSpm in H157 cells. FIG. 19 depicts the results of a 96 hr MTS dose response experiments for compounds 42-TDW-35c, 46-TDW-44 and BENSpm in H157 cells.

[2] = test system: H82 (small lung cell carcinoma) cells; assay: 96 hr MTS dose response experiments in H82 cells; type: cell-based, human
Experimental: as §1, §2

H82 cells = assay: Polyamine levels in H82 cells following treatment; type: cell-based, human; details: 24 hr
Experimental: (§3) Putrescine, spermidine, and spermine polyamine levels in H157 and H82 cells following exposure to select compounds were performed. Polyamine levels were determined using the precolumn dansylation labeling, reverse-phase high-pressure liquid chromatography method as described by Kabra et al., J. Chromotography, 380:19 (1986). The results are show in Tables 6 and 11 for H157 and H82 cells respectively. The compound identifier, treatment concentration, observed polyamine level, and exposure time are listed in columns 1, 2, 3, and 4 respectively. Polyamine levels are reported as increased (inc), decrease (dec), or no change (N/C). In some case the specific levels of putrescine, spermidine, and/or spermine are listed.

[3] = test system: H157 (non-small cell lung carcinoma) cells; assay: Polyamine levels in H157 cells following treatment; type: cell-based, human; details: 24 hr
Experimental: as §3

A549 cells = assay: 96 hr MTS dose response experiments in A549 cells; type: cell-based; details: Homo sapiens, 96 hr exposure
Experimental: as §1
Note that the results for a 72 hr exposure in addition to the 96 hr exposure are shown for compound 49-TDW-29C in the H157 cells. […]

[4] = test system: P19 embryonal carcinoma cells; details: P19 embryonal carcinoma cells treated; cited from earlier work
[5] = 10 uM, inc = increased, dec = decrease, N/C = no change
[6] = Homo sapiens, NCI-H157, 96 hr exposure
[7] = Homo sapiens, NCI-H82, 96 hr exposure

| SMILES | IC50 [1, 6] [µM] | IC50 [2, 7] [µM] | Polyamine Level [3, 5] | other results |
| --- | --- | --- | --- | --- |
| CCSCCNCCCNCCCNCCCNCCSCC [49-TDW-15] |  |  |  | IC50 ([1]; 96 hr exposure): 0.5 to 1 µM; IC50 ([2]; 96 hr exposure): 10 to 50 µM |
| CC(C)(C)CCNCCCNCCCNCCCNCC(F)(F)F [40-TDW-19] | 5.3 to 26.5 | 5 to 10 |  |  |
| CCNCCCNCCCNCCCNCCCCc1cc2cccc3ccc4cccc1c4c32 [40-TDW-23] |  |  |  | IC50 ([1]; 96 hr exposure): 10 to 50 µM; IC50 ([2]; 96 hr exposure): 10 to 50 µM |
| C=C(C)NCCCNCCCNCCCNC(=C)C [ZQW-35-8] | > 10 |  | N/C | Polyamine Level (H82 cells; 10 uM): N/C, slight |
| C=C(C)NCCCNCCCNCCCN [ZQW-35-7c] | > 10 |  | dec | Polyamine Level (H82 cells; 10 uM): N/C; Polyamine Level ([3]; 5 uM): slight dec |
| c1ccc(-c2ccccc2CNCCCNCCCNCCCNCc2ccccc2-c2ccccc2)cc1 [39-TDW-3] | 0.53 to 2.7 | 0.53 to 2.7 |  | IC50 (A549 cells): 1 to 10 µM |
| C=C(C)NCCCNCCCNCCCNCC [ZQW-35-8c] | 1 to 10 |  | dec | Polyamine Level (H82 cells; 10 uM): N/C, slight; Polyamine Level, spd, spm ([3]; spermidine and spermine, 10 uM): 1 g dec |
| CCNCCCNCCCNCCCNCc1ccccc1-c1ccccc1 [39-TDW-20c] | 2.76 to 5.52 | 2.76 to 5.52 |  | IC50 (A549 cells): > 10 µM |
| N[C@@H]1C[C@H]1c1ccccc1 [tranylcypromine, (1R,2S)-2-phenylcyclopropan-1-amine] |  |  |  | effect on transcription of Egr1 and Oct4 genes [4]: transcriptional de-repression of the Egr1 and Oct4 genes |

Further lines, with some results ahead:

| IC50 [1, 6] [µM] | IC50 [2, 7] [µM] | SMILES | Polyamine Level [3, 5] | other results |
| --- | --- | --- | --- | --- |
| > 13 |  | C=C(CNCCCNCC)CNCCCNCC [ZQW-44] | N/C | Polyamine Level (H82 cells; 50 uM): inc |
| 1 to 10 | 1 to 10 | CCNCCCNCCCNCCCNCC1CCC2CC1C2(C)C (stereo not drawn) [ZQW-36] | slight dec | Polyamine Level, Spm ([3]; spermine (Spm), 10 uM): inc |
| 1 to 10 | < 1 | CC1(C)C2CCC(CNCCCNCCCNCCCNCC3CCC4CC3C4(C)C)C1C2 (stereo not drawn) [ZQW-35] |  | Polyamine Level ([3]; 4 uM): N/C |
| 1 to 10 | 1 to 10 | CC1(C)C2CCC(CNCCCNCCCNCCCN)C1C2 (stereo not drawn) [ZQW-35c] |  |  |
| 13 |  | C=C(CNCC)CNCCCNCCCNCC [ZQW-46] | N/C | Polyamine Level (H82 cells; 5-uM): dec |

From patent US8148577B2, “Polyamines useful as anti-parasitic and anti-cancer therapeutics and as lysine-specific demethylase inhibitors” (The Johns Hopkins University, priority 2005, dated 2012)
